The source of these data is patent US20190358196A1, “PI 4-KINASE INHIBITOR AS A THERAPEUTIC FOR VIRAL HEPATITIS, CANCER, MALARIA. AUTOIMMUNE DISORDERS AND INFLAMMATION, AND A RADIOSENSITIZER AND IMMUNOSUPPRESSANT” (priority 2016, published 2019).

The target in one series is PI4Ka (Homo sapiens, UniProt P42356). As to the kind of experiment: HotSpot lipid kinase inhibition assay.
In series [1] the test system is cell culture-derived HCV (HCVcc).

PI4Ka, sequence (P42356 whole entry): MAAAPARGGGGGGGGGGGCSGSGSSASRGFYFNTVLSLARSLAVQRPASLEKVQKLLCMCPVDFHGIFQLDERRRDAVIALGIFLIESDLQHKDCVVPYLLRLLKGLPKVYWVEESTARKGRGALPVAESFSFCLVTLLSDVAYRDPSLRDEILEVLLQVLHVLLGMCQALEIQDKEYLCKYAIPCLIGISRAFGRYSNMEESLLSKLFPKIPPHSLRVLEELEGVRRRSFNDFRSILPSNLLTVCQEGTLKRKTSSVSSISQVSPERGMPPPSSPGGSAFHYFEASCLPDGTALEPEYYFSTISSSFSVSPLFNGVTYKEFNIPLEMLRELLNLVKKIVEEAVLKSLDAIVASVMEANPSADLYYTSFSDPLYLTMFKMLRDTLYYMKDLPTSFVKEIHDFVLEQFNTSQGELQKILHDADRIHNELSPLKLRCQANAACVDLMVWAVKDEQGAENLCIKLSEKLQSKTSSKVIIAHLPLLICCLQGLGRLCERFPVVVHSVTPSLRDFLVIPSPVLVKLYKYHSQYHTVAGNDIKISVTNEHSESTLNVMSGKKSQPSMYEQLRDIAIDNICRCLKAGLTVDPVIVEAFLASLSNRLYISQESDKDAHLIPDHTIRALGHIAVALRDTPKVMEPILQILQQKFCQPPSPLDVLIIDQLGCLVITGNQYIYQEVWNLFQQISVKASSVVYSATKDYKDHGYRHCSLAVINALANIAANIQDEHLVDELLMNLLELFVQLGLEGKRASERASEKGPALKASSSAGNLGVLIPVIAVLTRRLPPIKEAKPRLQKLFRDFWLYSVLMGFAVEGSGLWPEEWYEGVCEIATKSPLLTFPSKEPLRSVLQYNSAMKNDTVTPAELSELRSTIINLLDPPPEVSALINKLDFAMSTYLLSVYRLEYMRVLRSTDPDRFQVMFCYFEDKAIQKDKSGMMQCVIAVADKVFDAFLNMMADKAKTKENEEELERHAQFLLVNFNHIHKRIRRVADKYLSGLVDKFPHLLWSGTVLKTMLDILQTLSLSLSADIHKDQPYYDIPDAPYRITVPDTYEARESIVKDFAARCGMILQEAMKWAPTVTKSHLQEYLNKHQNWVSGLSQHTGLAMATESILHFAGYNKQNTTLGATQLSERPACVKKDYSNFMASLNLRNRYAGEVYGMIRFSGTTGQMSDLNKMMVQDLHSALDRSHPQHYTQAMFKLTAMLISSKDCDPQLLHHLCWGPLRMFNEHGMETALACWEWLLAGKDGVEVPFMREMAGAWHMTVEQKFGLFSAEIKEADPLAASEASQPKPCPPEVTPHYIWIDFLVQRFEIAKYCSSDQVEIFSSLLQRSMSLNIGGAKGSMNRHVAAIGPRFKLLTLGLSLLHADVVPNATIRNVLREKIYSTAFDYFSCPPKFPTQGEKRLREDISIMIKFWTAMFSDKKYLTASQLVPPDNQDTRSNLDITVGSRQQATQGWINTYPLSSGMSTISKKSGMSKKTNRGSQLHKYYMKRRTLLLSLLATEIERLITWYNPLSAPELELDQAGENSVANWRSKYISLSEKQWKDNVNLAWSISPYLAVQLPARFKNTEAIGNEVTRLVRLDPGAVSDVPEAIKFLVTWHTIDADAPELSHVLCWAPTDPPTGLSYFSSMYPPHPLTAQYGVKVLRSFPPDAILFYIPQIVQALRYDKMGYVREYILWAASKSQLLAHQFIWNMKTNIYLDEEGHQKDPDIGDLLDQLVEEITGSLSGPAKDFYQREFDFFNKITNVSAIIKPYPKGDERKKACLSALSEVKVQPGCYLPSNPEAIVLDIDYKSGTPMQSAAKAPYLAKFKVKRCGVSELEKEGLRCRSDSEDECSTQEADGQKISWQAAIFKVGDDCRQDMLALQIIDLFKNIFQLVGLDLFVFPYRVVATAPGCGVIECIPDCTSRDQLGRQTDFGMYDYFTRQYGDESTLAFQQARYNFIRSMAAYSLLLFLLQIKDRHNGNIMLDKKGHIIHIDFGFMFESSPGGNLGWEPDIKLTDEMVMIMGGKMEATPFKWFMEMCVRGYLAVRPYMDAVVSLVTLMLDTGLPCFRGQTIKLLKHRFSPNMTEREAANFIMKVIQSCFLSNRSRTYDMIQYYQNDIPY

Compound `Oc1cccc(-c2nc(N3CCOCC3)c3oc4ncccc4c3n2)c1` [PI-103] came in with an IC50 against PI4Ka of 322 nM. With Human interferon alpha-2b [rIFNa-2b], in series [1], the “SI (CC50/EC50)” value is over 15.9.
